From PMC11404609, “Gut microbiota-mediated C-sulfonate metabolism impairs the bioavailability and anti-cholestatic efficacy of andrographolide” (Gut Microbes, 2024) come the findings set out here.

The nature of series [1]: Tissue distribution of AP and APM in mice. Format: in vivo. As for the experimental part:
Control and ABX rats were orally administered a single dose of AP at 120 mg/kg. Control, ABX and germ-free C57BL/6J mice were orally administered a single dose of AP at 100 mg/kg. After 90 min of AP administration, all animals were euthanized, and blood and tissue samples were collected for subsequent analysis.
After 360 min of AP treatment, all mice were euthanized, and tissue samples were collected for subsequent analysis. […]
An ACQUITY^TM UPLC-MS/MS system equipped with an ACQUITY^TM UPLC BEH C18 Column (50 × 2.1 mm I.D., 1.7 μm, Waters, Milford, MA, USA) was utilized for the quantification of AP and APM as previously described.[47] Briefly, the detection samples (50 μL) were mixed with 50 μL of IS (50 ng/mL). AP and APM were extracted by 400 μL cold methanol. Supernatants were dried under nitrogen stream. Then, the residue was dissolved with 50% methanol in water, centrifuged for 30 min at 13,000 rpm, and 10 µL of the supernatant was subjected to UPLC-MS/MS analysis. The mobile phases consisted of eluent A (water) and eluent B (methanol) with a gradient elution as follows: 0–0.8 min, 10% B; 0.8–1.2 min, 10–90% B; 1.2–5.0 min, 90% B; 5.0–5.5 min, 90–10% B; 5.5–7.0 min, 10% B. The flow rate was 0.3 mL/min and the injection volume of all samples was 10 μL. The quantification of AP, APM and IS was performed by UPLC-MS/MS using an MRM method with the transitions of m/z 349.1→m/z 287.2 for AP, m/z 413.2→m/z 287.2 for APM, m/z 269→m/z 133 for IS.
AP was administered intravenously and orally to detect the production of the C-sulfonate metabolite APM. In tissue distribution experiment, rats were given AP intravenously (24 mg/kg) or orally (120 mg/kg), while mice received AP intravenously (20 mg/kg) or orally (100 mg/kg). After a 90-minute interval, the animals were sacrificed, and their liver, kidneys, small intestine, and colon were collected for analysis. In pharmacokinetic studies, rats were administered 24 mg/kg of AP intravenously or 120 mg/kg of AP by oral gavage. Blood samples were collected at predetermined time intervals (0, 5, 10, 20, 30, 40, 60, 90, 120, 180, 240, 360, and 480 min), as described, to detect the content of AP and APM by UPLC-MS/MS.

Series [2] deals with NF-κB and JNK/MAPK pathways. In words: RNA sequencing of liver: NF-κB and JNK/MAPK pathway genes. Type of series: in vivo, mice. As to conditions: ANIT+AP (200 mg/kg, i.p.) vs ANIT. On the procedure: RNA in liver tissue was isolated from mice treated with ANIT and ANIT+AP (200 mg/kg, i.p.) and purified by TRIzol (Invitrogen, CA). The isolated RNA was quantified using Qubit 2.0 (Thermo Fisher Scientific, USA) following the manufacturer’s protocol. Libraries were prepared using the NEBNext® UltraTM RNA Library Prep Kit for Illumina® (NEB, USA) and sequenced on a Novaseq 6000 (Illumina, USA) at Novogene’s deep sequencing facility. Mapped reads from each sample were assembled using StringTie (v1.3.3b) in a reference-based approach, and featureCounts was used to quantify mapped reads. Differential expression analysis of two conditions/groups was performed using the DESeq2 R package (1.20.0).

Series [3] in a line: In-situ single-pass intestinal perfusion of AP. Format: in vivo. As to conditions: rats, AP 20 μM co-perfused with Na2SO4 40 μM vs AP alone. On the procedure: The rat intestinal perfusion experiment was conducted based on previous literature reports^6, 7. The experimental animals were divided into two groups: Control and SO4^2- groups. Rats were anaesthetised via the intraperitoneal injection of 50% urethane at a dose of 2.4 mL/kg. Two segments of the intestine, specifically the duodenum and jejunum, each measuring 5-10 cm in length, were cannulated simultaneously. The primary tube was affixed to a syringe controlled by an infusion pump (Model PHD2000 Harvard Apparatus, Cambridge, Massachusetts). The inlet cannula was insulated and maintained in a constant temperature of 37°C in circulating water bath to ensure the perfusate’s thermal stability. Following the surgical procedure, the two segments of Control group were perfused with 20 μM AP, and the two segments of SO4^2- group were co-perfused with AP (20 μM) and Na2SO4 (40 μM). The perfusion was conducted at the flow rate of 0.17 mL/min and perfusate samples were collected every 15 min (15, 30, 45, 60, 75, and 90 min). The concentrations of AP and APM in the perfusate at the outlet were determined through UPLC-MS/MS analysis.

With `C=C1CC[C@@H]2[C@](C)(CO)[C@H](O)CC[C@@]2(C)[C@@H]1C/C=C1/C(=O)OC[C@H]1O` [AP, Andrographolide], in series [1] (ABX-treated mice vs Control, AP 100 mg/kg oral), the “concentration of AP in tissues” value was “notably increased”. The “C-sulfonate metabolism of AP” value in series [1] (germ-free mice, AP 100 mg/kg oral) is on record as “suppressed”. For the same compound, in series [1] (mice colonized with D. piger vs Control, AP 100 mg/kg p.o.), the “AP concentration in tissues such as the liver” value was “notable reduction”. For the same compound, the “concentration of AP in the intestine and liver” value in series [1] (mice of pharmacological experiment, AP 200 mg/kg, following ABX treatment vs Control) is on record as “significantly increased”. In addition, the “AP levels in mouse tissues” value in series [1] (mice, AP 100 mg/kg p.o., Na2SO4 pre-treatment vs Control) is “decreased AP levels”; in series [1] (mice, AP 100 mg/kg p.o., bromocriptine mesylate pre-treatment vs Control) it was “elevated AP levels”. Moreover, in series [1] (mice, AP 200 mg/kg p.o. with APS reductase inhibitor vs without), the “AP exposure within the small intestine and liver” value is listed as “increase in AP exposure”. In addition, in series [2], the “clustering of NF-κB pathway genes and JNK/MAPK pathway genes” value is reported as “no significant differences”. In series [3], the “AP C-sulfonate metabolism” value is “substantial increase”.
